Measured values taken from ChEMBL document CHEMBL1201862, “PubChem BioAssay data set” (2004).
Active and inactive are the calls of the source.

What was measured:
[1] = A cytotoxicity screen of small molecule inhibitors of the PhoP region in Salmonella typhi identified in the primary screen. [Related pubchem assays: 1850, 1864, 1985 ]; format: functional
BJ [2] = assay: BJ-TERT fibroblast viability loss – cell-based, RAS-independent, luminescence, dose response (AID 1933); format: functional; details: Homo sapiens
BJ [3] = assay: cells; format: functional, cell-based; details: Homo sapiens
BJ [4] = assay: BJ-TERT-LT-ST fibroblast viability loss – cell-based, RAS-independent, luminescence, dose response (AID 1935); format: functional; details: Homo sapiens;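 further: BJ fibroblasts immortalized with TERT plus LT and ST oncogenes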
[5] = DRD fibroblast viability loss – cell-based, non-viral oncogenic, luminescence, dose response (AID 1934); format: functional; details: Homo sapiens
Prothrombin [6] = target: Prothrombin (Homo sapiens, UniProt P00734); assay: Thrombin 1536 HTS Dose Response Confirmation. [Related pubchem assays: 1046 (Thrombin 1536 HTS; hits were confirmed in this assay)]; format: functional
[7] = target: T1, Mannose-6-phosphate isomerase (Homo sapiens, UniProt P34949); assay: MPI inhibition at elevated mannose 6-phosphate – biochemical, fluorescence intensity, high mannose 6-phosphate, primary screen (AID 1220)
T1 sequence (P34949 whole entry): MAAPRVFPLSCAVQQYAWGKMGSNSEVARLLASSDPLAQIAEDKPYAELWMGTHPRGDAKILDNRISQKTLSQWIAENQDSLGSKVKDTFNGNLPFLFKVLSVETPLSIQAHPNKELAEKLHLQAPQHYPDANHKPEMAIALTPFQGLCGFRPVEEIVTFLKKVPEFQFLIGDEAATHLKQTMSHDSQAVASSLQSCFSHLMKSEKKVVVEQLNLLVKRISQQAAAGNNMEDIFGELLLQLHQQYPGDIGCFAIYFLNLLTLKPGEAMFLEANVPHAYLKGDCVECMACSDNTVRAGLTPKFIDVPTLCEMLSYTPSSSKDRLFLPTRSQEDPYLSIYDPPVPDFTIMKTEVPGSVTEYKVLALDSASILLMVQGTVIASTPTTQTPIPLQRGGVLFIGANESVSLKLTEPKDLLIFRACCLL

[8] = target: T2, Polyadenylate-binding protein 1 (Homo sapiens, UniProt P11940); assay: MLLE binding blockers, Cy5 peptide tracer – biochemical, fluorescence polarization, Cy5-PAM2 peptide, secondary, miRNA deadenylation inhibitor project, dose response (AID 602260); format: functional; details: read-out: IC50_Mean
T2 sequence (P11940 whole entry, the tested form may be a part): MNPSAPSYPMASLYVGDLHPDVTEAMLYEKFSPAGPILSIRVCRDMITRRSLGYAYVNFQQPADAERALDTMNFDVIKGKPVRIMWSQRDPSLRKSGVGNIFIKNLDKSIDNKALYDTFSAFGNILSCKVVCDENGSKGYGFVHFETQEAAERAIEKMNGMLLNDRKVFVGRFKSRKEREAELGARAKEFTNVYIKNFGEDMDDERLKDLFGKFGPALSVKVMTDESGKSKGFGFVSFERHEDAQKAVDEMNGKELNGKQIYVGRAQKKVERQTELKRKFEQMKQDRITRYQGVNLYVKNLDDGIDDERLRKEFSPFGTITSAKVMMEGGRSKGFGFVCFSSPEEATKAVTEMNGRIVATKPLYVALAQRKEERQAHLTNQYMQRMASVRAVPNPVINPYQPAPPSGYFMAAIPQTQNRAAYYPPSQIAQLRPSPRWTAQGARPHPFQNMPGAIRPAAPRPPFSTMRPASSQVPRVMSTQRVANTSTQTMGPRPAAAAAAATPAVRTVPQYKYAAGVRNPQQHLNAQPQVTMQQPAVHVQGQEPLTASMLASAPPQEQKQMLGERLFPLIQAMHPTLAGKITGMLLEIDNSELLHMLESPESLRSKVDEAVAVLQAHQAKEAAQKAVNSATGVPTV

[9] = target: T2, Polyadenylate-binding protein 1; assay: MLLE domain peptide-binding blockers, IC50 – biochemical, fluorescence polarization, FITC-PAM2 peptide, dose response (AID 602259); format: functional; details: read-out: IC50_Mean
Kallikrein-7 = Kallikrein-7 (Homo sapiens, UniProt P49862); assay: Fluorescence Intensity-based biochemical primary high throughput dose response assay to identify activators of kallikrein-7 (K7) zymogen.
Chain of Kallikrein-7 (P49862 whole entry): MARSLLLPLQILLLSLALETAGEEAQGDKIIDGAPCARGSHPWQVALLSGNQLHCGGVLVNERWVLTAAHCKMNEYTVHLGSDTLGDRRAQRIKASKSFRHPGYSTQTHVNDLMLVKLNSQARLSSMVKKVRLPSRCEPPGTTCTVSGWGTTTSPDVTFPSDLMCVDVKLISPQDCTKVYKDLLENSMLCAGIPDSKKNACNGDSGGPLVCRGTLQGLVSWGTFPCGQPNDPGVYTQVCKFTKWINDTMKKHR

[10] = viability of uninfected HEp-2 cells – cell-based, HTS, cytotoxicity control for RSV inhibitor project, dose response (AID 2410); format: functional; details: human respiratory syncytial virus
[11] = blockers of HIV-1 envelope-mediated cell-cell fusion – cherry-pick, dose response (AID 652057); format: functional, cell-based
[12] = blockers of HIV-1 ZM109 envelope-driven cell-cell fusion – HeLa effector, CEM target cells, luciferase, cherry-pick, dose response (AID 652058); format: functional, cell-based;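 further: luciferase signal from HIV-1 Env mediated cell-cell fusion of effector and target cells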
[13] = off-target signal loss in HeLa-CEM21 co-culture – HeLa F-luc CTL cells, cherry-picked, counter-screen for HIV-1 Env fusion inhibitor project, dose response (AID 652040); format: functional, cell-based;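 further: potency for signal decrease marking cytotoxic or nonspecific inhibition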
[14] = HIV-1 AD8 envelope cell-cell fusion blockers – cherry-pick, dose response (AID 652062); format: functional, cell-based;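 further: luciferase signal from cell-cell fusion driven by HIV-1 clade B AD8 Env; potency is for inhibitors of fusion seen as a drop in luminescence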
[15] = target: 26S proteasome non-ATPase regulatory subunit 14 (Homo sapiens, UniProt O00487); assay: inhibition of proteasome subunit RPN11 – biochemical, fluorescence polarization, uHTS hits, confirmation (AID 602368); format: functional
Chain of 26S proteasome non-ATPase regulatory subunit 14 (O00487 whole entry): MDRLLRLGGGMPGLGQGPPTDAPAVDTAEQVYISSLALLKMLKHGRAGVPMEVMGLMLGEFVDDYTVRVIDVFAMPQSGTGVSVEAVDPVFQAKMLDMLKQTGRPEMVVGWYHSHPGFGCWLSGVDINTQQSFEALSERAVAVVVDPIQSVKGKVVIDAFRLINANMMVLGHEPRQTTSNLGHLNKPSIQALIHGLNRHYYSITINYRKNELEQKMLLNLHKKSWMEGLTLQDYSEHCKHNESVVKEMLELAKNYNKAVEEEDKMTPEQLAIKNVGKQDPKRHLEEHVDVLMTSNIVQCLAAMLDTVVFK

[16] = target: 72 kDa type IV collagenase (Homo sapiens, UniProt P08253); assay: Dose Response validation of uHTS RPN11 inhibitor hits using a MMP-2 Fluorescence assay.; format: functional
Chain of 72 kDa type IV collagenase (P08253 whole entry): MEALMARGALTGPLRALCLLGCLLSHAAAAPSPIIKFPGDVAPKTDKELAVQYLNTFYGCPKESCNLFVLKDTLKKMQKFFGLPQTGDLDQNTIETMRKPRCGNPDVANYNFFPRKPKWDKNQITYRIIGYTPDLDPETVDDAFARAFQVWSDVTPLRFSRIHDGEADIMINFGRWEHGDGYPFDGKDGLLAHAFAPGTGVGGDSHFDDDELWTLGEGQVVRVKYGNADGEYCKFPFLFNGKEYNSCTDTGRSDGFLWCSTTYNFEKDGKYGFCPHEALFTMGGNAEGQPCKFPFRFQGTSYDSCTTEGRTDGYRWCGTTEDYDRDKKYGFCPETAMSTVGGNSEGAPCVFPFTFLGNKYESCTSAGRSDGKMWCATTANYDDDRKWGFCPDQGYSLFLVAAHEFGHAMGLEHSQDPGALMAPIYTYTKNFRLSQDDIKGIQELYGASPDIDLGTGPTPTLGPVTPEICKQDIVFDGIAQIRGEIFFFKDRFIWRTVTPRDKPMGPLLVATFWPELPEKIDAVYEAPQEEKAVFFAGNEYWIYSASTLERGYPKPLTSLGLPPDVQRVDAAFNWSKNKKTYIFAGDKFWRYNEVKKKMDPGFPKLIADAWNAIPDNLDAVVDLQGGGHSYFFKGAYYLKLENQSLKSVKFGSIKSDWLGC

Prothrombin [17] = target: Prothrombin (Bos taurus, UniProt P00735); assay: thrombin protease inhibitors – biochemical, fluorescence polarization, uHTS hits, dose response (AID 602369); format: functional
H9c2 = assay: cells; format: functional, cell-based; details: Rattus norvegicus, H9c2, Myocardium;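 further: confirmatory concentration-response retest of ultra-high-throughput screening hits for modulation of myocardial damage; cell death induced by hydrogen peroxide oxidative stress; compound pretreatment for 60 min then peroxide exposure for 2 h; potency is for protecting the cells against peroxide damage rather than for killing them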
INS1 = assay: INS-1E survival protection against cytokine death – cell-based, luminescence, retest, dose response (AID 449756); format: functional; details: Rattus norvegicus;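 further: cell death triggered by IL-1 beta plus TNF-alpha plus IFN-gamma mixture; protective hits raise ATP signal compared with cytokine alone wells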
[18] = Vero E6 cell cytotoxicity, dose response, cytotoxicity control for non-replicating M. tuberculosis project, secondary assay (AID 492998); format: functional, VeroE6; details: Vero C1008
cells = format: functional
[19] = target: Voltage-dependent T-type calcium channel subunit alpha-1H (Homo sapiens, UniProt O95180); format: functional;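 further: channel activity triggered by adding a high calcium stimulation buffer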
Chain of Voltage-dependent T-type calcium channel subunit alpha-1H (O95180 whole entry): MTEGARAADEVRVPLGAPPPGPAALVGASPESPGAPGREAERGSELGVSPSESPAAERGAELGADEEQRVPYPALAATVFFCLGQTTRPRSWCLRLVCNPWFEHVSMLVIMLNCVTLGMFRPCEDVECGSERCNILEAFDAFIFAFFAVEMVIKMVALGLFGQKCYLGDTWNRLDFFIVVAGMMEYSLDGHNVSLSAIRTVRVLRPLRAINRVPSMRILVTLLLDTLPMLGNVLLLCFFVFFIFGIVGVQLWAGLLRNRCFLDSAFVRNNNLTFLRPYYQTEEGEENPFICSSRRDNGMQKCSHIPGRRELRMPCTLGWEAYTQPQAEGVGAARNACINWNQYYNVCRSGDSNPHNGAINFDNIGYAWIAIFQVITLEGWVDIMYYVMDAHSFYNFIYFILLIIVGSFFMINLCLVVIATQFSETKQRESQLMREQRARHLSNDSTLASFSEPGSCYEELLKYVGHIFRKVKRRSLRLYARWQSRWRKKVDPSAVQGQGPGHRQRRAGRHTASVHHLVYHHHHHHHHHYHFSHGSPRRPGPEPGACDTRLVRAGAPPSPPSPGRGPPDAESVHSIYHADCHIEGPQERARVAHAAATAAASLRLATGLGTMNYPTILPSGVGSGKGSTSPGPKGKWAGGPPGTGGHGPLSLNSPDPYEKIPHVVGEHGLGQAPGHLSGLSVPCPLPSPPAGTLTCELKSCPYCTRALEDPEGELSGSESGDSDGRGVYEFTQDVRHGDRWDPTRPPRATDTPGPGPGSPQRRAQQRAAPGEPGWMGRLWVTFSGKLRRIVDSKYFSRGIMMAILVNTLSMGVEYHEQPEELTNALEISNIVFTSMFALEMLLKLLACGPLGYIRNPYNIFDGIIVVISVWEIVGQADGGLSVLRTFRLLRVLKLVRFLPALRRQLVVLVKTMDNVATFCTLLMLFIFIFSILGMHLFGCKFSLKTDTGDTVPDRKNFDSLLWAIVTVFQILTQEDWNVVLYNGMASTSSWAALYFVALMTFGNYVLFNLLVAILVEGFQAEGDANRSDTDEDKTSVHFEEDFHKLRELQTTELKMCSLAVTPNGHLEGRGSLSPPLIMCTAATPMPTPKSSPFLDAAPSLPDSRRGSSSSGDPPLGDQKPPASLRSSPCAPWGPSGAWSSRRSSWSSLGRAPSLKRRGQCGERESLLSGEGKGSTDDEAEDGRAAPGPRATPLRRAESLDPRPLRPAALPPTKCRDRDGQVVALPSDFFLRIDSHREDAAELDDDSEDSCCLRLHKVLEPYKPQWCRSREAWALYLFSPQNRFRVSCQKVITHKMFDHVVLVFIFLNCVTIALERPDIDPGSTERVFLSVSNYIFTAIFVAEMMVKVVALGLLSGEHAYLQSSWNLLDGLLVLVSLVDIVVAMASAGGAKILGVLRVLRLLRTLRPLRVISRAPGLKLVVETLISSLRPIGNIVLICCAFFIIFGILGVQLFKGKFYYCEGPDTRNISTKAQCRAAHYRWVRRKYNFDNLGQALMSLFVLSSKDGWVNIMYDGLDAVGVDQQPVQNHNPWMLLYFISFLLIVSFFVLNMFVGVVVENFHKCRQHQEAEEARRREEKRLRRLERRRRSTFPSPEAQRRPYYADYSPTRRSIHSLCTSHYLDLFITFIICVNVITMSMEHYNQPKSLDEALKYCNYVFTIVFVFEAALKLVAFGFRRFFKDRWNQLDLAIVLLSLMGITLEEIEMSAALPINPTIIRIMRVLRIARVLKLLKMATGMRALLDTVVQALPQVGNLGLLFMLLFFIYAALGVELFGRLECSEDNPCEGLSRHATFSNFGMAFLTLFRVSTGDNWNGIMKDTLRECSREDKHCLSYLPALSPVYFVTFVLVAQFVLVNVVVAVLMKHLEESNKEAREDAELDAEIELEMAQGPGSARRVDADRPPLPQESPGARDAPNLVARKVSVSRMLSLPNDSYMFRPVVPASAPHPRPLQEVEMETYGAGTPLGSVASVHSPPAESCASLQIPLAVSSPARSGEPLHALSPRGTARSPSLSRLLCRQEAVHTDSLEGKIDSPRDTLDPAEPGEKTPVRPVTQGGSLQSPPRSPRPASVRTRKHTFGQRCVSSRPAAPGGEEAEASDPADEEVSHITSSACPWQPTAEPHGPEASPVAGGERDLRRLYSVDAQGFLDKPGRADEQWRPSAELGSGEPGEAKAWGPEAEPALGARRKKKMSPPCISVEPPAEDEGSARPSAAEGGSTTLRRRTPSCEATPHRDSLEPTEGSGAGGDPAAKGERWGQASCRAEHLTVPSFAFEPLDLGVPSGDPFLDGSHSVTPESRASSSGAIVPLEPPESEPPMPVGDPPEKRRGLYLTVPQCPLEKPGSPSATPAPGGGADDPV

[20] = target: FAD-linked sulfhydryl oxidase ALR (Homo sapiens, UniProt P55789); assay: ALR-catalysed DTT oxidation blockers – biochemical, H2O2 detection, luminescence, cherry-pick, dose response (AID 493248)
Chain of FAD-linked sulfhydryl oxidase ALR (P55789 whole entry): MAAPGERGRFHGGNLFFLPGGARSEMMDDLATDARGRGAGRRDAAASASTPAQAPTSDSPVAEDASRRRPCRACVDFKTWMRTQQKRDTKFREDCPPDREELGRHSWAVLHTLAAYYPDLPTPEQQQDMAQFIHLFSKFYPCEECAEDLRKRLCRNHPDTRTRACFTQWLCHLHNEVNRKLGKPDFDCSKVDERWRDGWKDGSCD

[21] = A Cell Based Secondary Assay To Explore Cytotoxicity of Compounds that Sensitize Mycobacterium Tuberculosis to Beta-Lactam Antibiotics.; format: functional
[22] = target: T3, Corticotropin-releasing factor receptor 2/Corticotropin-releasing factor-binding protein (Homo sapiens, UniProt P24387+Q13324); assay: Dose Response confirmation of uHTS hits for small molecule antagonists of the CRF-binding protein and CRF-R2 receptor complex.; format: functional; details: read-out: IC50_Mean
T3 sequence (Q13324 whole entry): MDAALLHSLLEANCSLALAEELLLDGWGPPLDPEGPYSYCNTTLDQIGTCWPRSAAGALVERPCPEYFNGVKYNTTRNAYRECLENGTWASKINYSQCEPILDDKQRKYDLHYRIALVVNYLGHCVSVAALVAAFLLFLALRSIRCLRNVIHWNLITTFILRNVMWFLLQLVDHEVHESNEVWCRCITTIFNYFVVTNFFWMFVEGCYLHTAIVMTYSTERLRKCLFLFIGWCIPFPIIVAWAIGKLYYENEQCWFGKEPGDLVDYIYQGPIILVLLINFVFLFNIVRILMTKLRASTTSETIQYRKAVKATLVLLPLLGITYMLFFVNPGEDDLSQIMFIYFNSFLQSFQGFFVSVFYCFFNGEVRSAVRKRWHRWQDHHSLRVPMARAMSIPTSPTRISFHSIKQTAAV
T3 sequence (P24387 whole entry): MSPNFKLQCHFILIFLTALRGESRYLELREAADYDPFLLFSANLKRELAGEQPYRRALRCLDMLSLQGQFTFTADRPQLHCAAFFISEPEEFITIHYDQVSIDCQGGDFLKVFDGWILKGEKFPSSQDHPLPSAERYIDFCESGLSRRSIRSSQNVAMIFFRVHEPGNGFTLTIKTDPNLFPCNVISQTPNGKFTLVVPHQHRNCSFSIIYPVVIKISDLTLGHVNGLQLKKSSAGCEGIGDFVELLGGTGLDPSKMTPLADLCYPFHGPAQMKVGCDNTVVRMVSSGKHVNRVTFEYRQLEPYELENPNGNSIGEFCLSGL

[23] = target: T3, Corticotropin-releasing factor receptor 2/Corticotropin-releasing factor-binding protein; assay: activators of CRF receptor 2 with binding protein – uHTS hits, confirmation (AID 602473); format: functional; details: read-out: EC50_Mean
[24] = luciferase reporter signal suppression in cells – H4 neuroglioma cells, luminescence, dose response (AID 1990); format: functional, cell-based
[25] = Luminescence Cell-Based Dose Response HTS to Identify Inhibitors of 5'UTR Stem-Loop Driven Prion Protein mRNA Translation in H4 Neuroglioblastoma Cells. [Related pubchem assays: 1827 (Project Summary), 1813 (Primary HTS)]; format: functional
[26] = alpha-synuclein stem-loop luciferase translation blockers – H4 neuroglioma cells, luminescence, confirmation (AID 1988); format: functional, cell-based
Paired box protein Pax-8 = Paired box protein Pax-8 (Homo sapiens, UniProt Q06710); assay: PAX8 transcriptional activity inhibition in RMG-I – RMG-I cells, luciferase, cherry-pick, dose response (AID 687027); format: functional, cell-based;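 further: luciferase reporter driven by Pax8 target thyroperoxidase promoter measured by SteadyGlo luminescence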
Chain of Paired box protein Pax-8 (Q06710 whole entry): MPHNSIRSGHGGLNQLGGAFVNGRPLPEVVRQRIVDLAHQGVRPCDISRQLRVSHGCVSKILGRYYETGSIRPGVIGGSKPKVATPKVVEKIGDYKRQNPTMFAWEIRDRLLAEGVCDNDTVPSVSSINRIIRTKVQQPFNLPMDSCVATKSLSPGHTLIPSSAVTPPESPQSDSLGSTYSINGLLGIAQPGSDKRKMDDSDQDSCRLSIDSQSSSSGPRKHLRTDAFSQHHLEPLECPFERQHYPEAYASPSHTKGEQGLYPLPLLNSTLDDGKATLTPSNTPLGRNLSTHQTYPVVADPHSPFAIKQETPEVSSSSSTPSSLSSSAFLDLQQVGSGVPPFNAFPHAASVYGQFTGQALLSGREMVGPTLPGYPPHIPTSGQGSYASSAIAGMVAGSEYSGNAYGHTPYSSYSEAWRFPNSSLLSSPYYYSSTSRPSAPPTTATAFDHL

[27] = OVCAR-3 cell viability loss – plate reader, dry powder samples, PAX8 inhibitor project, dose response (AID 743044); format: functional, cell-based
[28] = IGROV1 cell killing – plate reader, dry powder samples, PAX8 inhibitor project, dose response (AID 743043); format: functional, cell-based; details: IGROV-1

COc1ccccc1C(=O)N1CC2(C)CC1CC(C)(C)C2 (stereo not given)
EC50 [1]: > 50 µM (active)

COc1cc(Nc2c3c(nc4ccccc24)CCC3)cc(OC)c1OC
EC50 (BJ [2]): 2.86 µM (active) | EC50 (BJ [3]): 42.7 µM (inconclusive) | EC50 (BJ [4]): 18.5 µM (inconclusive) | EC50 [5]: 2.38 µM (active)

CC(=O)N1C(=O)/C(=C2\SC(=S)N(c3c(C)n(C)n(-c4ccccc4)c3=O)C2=O)c2ccccc21
IC50 (Prothrombin [6]): 8.97 µM (active) | IC50 [7]: > 50 µM (not active) | IC50 [8]: > 66 µM (inactive) | IC50 [9]: > 66 µM (inactive)

CCCC(=O)Nc1ccc2nn(-c3ccc(OC)cc3)nc2c1
EC50 (Kallikrein-7): > 69.5 µM (inactive)

COC(=O)C1=C(C)N(CC2CC2)C(=O)N[C@H]1c1ccc(Br)cc1
CC50 [10]: 35.1 µM (active) | EC50 [1]: > 50 µM (active) | AC50 [11]: 7.14 µM (active) | AC50 [12]: 14.7 µM (active) | AC50 [13]: 11.7 µM (active) | AC50 [14]: 8.52 µM (active)

COc1ccc(OC)c(N2C(=O)/C(=C/Nc3c(C)n(C)n(-c4ccccc4)c3=O)C(=O)NC2=S)c1
IC50 [15]: 34.7 µM (active) | IC50 [16]: 38.7 µM (active) | IC50 (Prothrombin [17]): 51.9 µM (active)

COc1ccccc1NC(=O)COc1ccc(C(=O)OCC(=O)NC(C)(C)C)cc1OC
IC50 (H9c2): > 79 µM (inactive)

Oc1ccc(CNc2ccccc2)c2cccnc12
IC50 [7]: > 50 µM (not active) | AC50 (INS1): 14.4 µM (active)

CCc1cc2c(CN3CCN(Cc4ccccc4)CC3)cc(=O)oc2cc1O
EC50 (Kallikrein-7): > 69.5 µM (inactive)

COc1ccccc1NC(=O)CSc1nc(N)c(C#N)cc1C#N
IC50 [15]: 36.2 µM (active) | IC50 [16]: > 100 µM (inactive) | IC50 (Prothrombin [17]): 55.8 µM (active)

CCCCc1cc(=O)oc2cc(C)cc(OCC(=O)N3CCC(C(=O)O)CC3)c12
EC50 (Kallikrein-7): > 7.72 µM (active)

Cc1cc2nc(-c3ccc(SCc4ccccn4)nc3)[nH]c2cc1C
EC50 (Kallikrein-7): 12.9 µM (inactive)

CCCn1nnnc1NC(=O)c1cc(Cl)ccc1Cl
CC50 [18]: > 20 µM (active) | IC50 (cells): 5.95 µM (active)

Cc1ccc2[nH]c(C(=O)O)c(NC(=O)CN3CCN(c4cccc(C)c4C)CC3)c2c1
CC50 [10]: 13.9 µM (active) | EC50 [1]: > 50 µM (active) | EC50 [19]: 5.05 µM (active) | AC50 [20]: 16.3 µM (active)

COc1ccc(Cl)cc1NC(=O)CN(C)C(=O)c1ccc(N2CCCCCC2)c([N+](=O)[O-])c1
CC50 [21]: > 40 µM (active)

O=C(COC(=O)Cn1[nH]c(=O)c2ccccc2c1=O)NNC(=O)c1ccc(Br)cc1
IC50 (H9c2): 17.2 µM (active)

O=C(Nc1ccccc1)c1nc[nH]c1C(=O)NCCCCCCNC(=O)c1[nH]cnc1C(=O)Nc1ccccc1
IC50 (H9c2): > 79 µM (inactive)

CCN1CCN(c2nc(O)c3c(n2)CCC3)CC1
IC50 (H9c2): > 79 µM (inactive)

Cc1cccc(N2CCN(C(=O)CCc3nc(O)c4ccccc4n3)CC2)c1C
IC50 (H9c2): > 79 µM (inactive) | IC50 [22]: > 47.1 µM (inactive) | EC50 [23]: > 53 µM (inactive)

CCOC(=O)/C=c1\s/c(=C\c2c(OC)ccc3ccccc23)c(=O)n1CC(=O)NCC1CCCO1 (stereo not given)
EC50 [24]: 10.5 µM (active) | CC50 [21]: 12.6 µM (active) | EC50 [25]: 12.3 µM (active) | EC50 [26]: 8.43 µM (active)

N#C/C(=C\C1=C(N2CCOCC2)C(=C\c2ccc(Cl)cc2)/CC1)C(=O)Nc1ccccc1F
CC50 [10]: 18.3 µM (active) | IC50 [15]: 6.46 µM (active) | IC50 [16]: > 100 µM (inactive) | IC50 (Prothrombin [17]): 17 µM (active)

O=C(N/N=C/c1ccc(Cl)cc1Cl)c1ccc2[nH]cnc2c1
IC50 [15]: 20.9 µM (active) | IC50 [16]: > 100 µM (inactive) | IC50 (Prothrombin [17]): 51.7 µM (active)

C[C@H]1CCCCO[C@H](CN(C)C(=O)Nc2ccc(C(F)(F)F)cc2)[C@@H](C)CN([C@@H](C)CO)C(=O)c2cc(NC(=O)CCC(F)(F)F)ccc2O1
AC50 (Paired box protein Pax-8): 6.57 µM (active) | AC50 [27]: 39.9 µM (active) | AC50 [28]: 54.7 µM (active)
